Tests used:
CDK4/CyclinD1 = CDK4/CyclinD1 (Homo sapiens, UniProt P11802); assay: CDK4/CyclinD1 Flashplate assay, 96-well format, biotinylated-Rb peptide substrate; type: biochemical
Procedure, shortened: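 Biotinylated Rb peptide bound to streptavidin Flashplate; CDK4/CyclinD1 (70 ng/well) preincubated 30 min on ice with compound at 10, 3, 1, 0.3 and 0.1 μM final. Reaction with 1 μM cold ATP plus 33P-ATP for 45 min at RT; incorporated 33P counted, duplicates.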

CDK2/CyclinE = CDK2/CyclinE (Homo sapiens, UniProt P24941); assay: CDK2/CyclinE Flashplate assay, 96-well format, biotinylated-Rb peptide substrate; type: biochemical
Procedure: This is a CDK2/CyclinE kinase assay in a 96-well Streptavidin-coated Flashplate with a biotinylated-Rb peptide substrate.
Each point is tested in duplicate
Biotinylated-Rb: Biotin-[…]-OH
• 1. Prepare substrate: 1 mg/ml solution made fresh in PBS. • 2. Add 4 μg per well to the Flashplate. • 3. Incubate for 2 hours at RT. • 4. From 10 mM inhibitor stocks in DMSO, make 1 mM, 300 μM, 100 μM, 30 μM and 10 μM series of dilution in DMSO. • 5. Was the Flashplate 3 times with 300 μl PBS to remove unbound peptide substrate. • 6. Add the CDK2/CyclinE kinase: 200 ng per well, in a volume of 90 μl in kinase buffer (except for “no enzyme” control wells). • 7. Add 1 μl per well of inhibitor to test 10 μM, 3 μM, 1 μM, 0.3 μM and 0.1 μM in final concentration per 100 μl in each well. • 8. Shake gently the Flashplate 1 minute. • 9. Incubate 30 minutes on wet ice. • 10. Initiate the reaction with 10 μl kinase buffer containing 1 μM final cold ATP and 1 μCi final ^33P-ATP per well. • 11. Shake gently the Flashplate 1 minute. • 12. Incubate 45 minutes at RT (no shaking). • 13. Wash the Flashplate 3 times with 300 μl PBS
14. Count to detect the incorporation of ^33P-ATP by the kinase to the Rb phosphorylation site.

Sequence of CDK4/CyclinD1 (P11802 whole entry, species assumed): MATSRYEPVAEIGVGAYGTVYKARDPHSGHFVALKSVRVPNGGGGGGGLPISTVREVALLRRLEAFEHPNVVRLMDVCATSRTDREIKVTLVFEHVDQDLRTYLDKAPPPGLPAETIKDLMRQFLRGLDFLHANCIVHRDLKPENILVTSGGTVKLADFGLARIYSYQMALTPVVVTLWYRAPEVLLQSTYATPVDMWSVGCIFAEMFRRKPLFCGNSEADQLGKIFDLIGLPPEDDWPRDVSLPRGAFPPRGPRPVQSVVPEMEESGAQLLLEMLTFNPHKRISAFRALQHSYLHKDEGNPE
Sequence of CDK4/CyclinD1 (P24385 whole entry partner, species assumed): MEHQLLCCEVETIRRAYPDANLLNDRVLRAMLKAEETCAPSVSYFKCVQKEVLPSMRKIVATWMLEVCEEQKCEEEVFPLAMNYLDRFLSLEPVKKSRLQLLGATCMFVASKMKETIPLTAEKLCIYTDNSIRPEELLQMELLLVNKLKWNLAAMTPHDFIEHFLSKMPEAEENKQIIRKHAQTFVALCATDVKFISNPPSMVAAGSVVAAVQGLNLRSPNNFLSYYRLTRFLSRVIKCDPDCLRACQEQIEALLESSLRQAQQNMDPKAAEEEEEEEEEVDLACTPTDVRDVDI

| SMILES | IC50 (CDK4/CyclinD1) [nM] | IC50 (CDK2/CyclinE) [nM] |
| --- | --- | --- |
| COC(=O)Nc1nc2cc(OS(=O)(=O)c3ccc(NCc4ccccn4)cc3)ccc2[nH]1 [Example 5, Methyl-5-(4-[2-pyridylmethyl]aminophenylsulfonyloxy) benzimidazole-2-carbamate] | 1120 | 2200 |
| CCNc1ccc(S(=O)(=O)Oc2ccc3[nH]c(NC(=O)OC)nc3c2)cc1 [Example 6, Methyl-5-(4-ethylaminophenylsulfonyloxy) benzimidazole-2-carbamate] | 840 | 300 |
| COC(=O)Nc1nc2cc(OS(=O)(=O)c3ccc(NCC(=O)O)cc3)ccc2[nH]1 [Example 7, Methyl-5-(4-[N-Glycinyl]-phenylsulfonyloxy) benzimidazole-2-carbamate] | 470 | 2000 |
| COC(=O)Nc1nc2cc(OS(=O)(=O)c3ccc(NC(C)C)cc3)ccc2[nH]1 [Example 10, Methyl-5-(4-isopropylaminophenylsulfonyloxy) benzimidazole-2-carbamate] | 700 | 800 |
| CCC(CO)Nc1ccc(S(=O)(=O)Oc2ccc3[nH]c(NC(=O)OC)nc3c2)cc1 (stereo not shown) [Example 11, Methyl-5-(4-[1-ethyl, 2-hydroxyethyl]aminophenylsulfonyloxy)benzimidazole-2-carbamate] | 930 | 500 |
| COCCCNc1ccc(S(=O)(=O)Oc2ccc3[nH]c(NC(=O)OC)nc3c2)cc1 [Example 13, Methyl-5-(4-[3-methoxypropyl]aminophenyl-sulfonyloxy) benzimidazole-2-carbamate] | 400 | 2000 |
| CNc1ccc(S(=O)(=O)Oc2ccc3[nH]c(NC(=O)OC)nc3c2)cc1 [Example 14, Methyl-5-(4-methylaminophenylsulfonyloxy) benzimidazole-2-carbamate] | 300 | 200 |
| COC(=O)Nc1nc2cc(OS(=O)(=O)c3ccc(NCCS(=O)(=O)O)cc3)ccc2[nH]1 [Example 15, Methyl-5-(4-[2-sulfonylethyl]aminophenylsulfonyloxy) benzimidazole-2-carbamate] | 300 | 1800 |
| COC(=O)Nc1nc2cc(OS(=O)(=O)c3ccc(N)cc3)ccc2[nH]1 [Example 16, Methyl-5-(4-aminophenylsulfonyloxy)benzimidazole-2-carbamate] | 370 | 1800 |
| CCN(CC)CCNc1ccc(S(=O)(=O)Oc2ccc3[nH]c(NC(=O)OC)nc3c2)cc1 [Example 17, Methyl-5-(4-[2-diethylaminoethyl]aminophenyl-sulfonyloxy) benzimidazole-2-carbamate] | 6300 | 2000 |
| COC(=O)Nc1nc2cc(OS(=O)(=O)c3ccc(NCC4CCCO4)cc3)ccc2[nH]1 (stereo not shown) [Example 18, Methyl-5-(4-[1-tetrathydrofurylmethyl]aminophenyl-sulfonyloxy) benzimidazole-2-carbamate] | 1300 | 600 |
| COC(=O)Nc1nc2cc(OS(=O)(=O)c3ccc(NC4CCCC4)cc3)ccc2[nH]1 [Example 19, Methyl-5-(4-cyclopentylaminophenylsulfonyloxy) benzimidazole-2-carbamate] | 2920 | 700 |
| COC(=O)Nc1nc2cc(OS(=O)(=O)c3ccc(NCCc4ccccc4)cc3)ccc2[nH]1 [Example 20, Methyl-5-(4-[2-phenylethyl]aminophenylsulfonyloxy) benzimidazole-2-carbamate] | > 3000 | > 10000 |
| COC(=O)CCC(=O)Nc1nc2cc(OS(=O)(=O)c3ccc(-n4ccnc4)cc3)ccc2[nH]1 [Example 23, N-[5-(4-Imidazol-1-yl-benzenesulfonyloxy)-1H-benzoimidazol-2-yl]-succinamic acid methyl ester] | 3100 | 400 |
| CC(C)(C)OC(=O)NCC(=O)Nc1nc2cc(OS(=O)(=O)c3ccc(NC4CCCC4)cc3)ccc2[nH]1 [Example 24, 4-Cyclopentylamino-benzenesulfonic acid 2-(2-tert-butoxycarbonylamino-acetylamino)-1H-benzoimidazol-5-yl ester] | 600 | 400 |
| COC(=O)CCC(=O)Nc1nc2cc(OS(=O)(=O)c3ccc(NC4CCCC4)cc3)ccc2[nH]1 [Example 25, N-[5-(4-Cyclopentylamino-benzenesulfonyloxy)-1H-benzoimidazol-2-yl]-succinamic acid methyl ester] | 130 | 80 |

| SMILES | IC50 (CDK4/CyclinD1) [nM] | IC50 (CDK2/CyclinE) [nM] |
| --- | --- | --- |
| COC(=O)CCCC(=O)Nc1nc2cc(OS(=O)(=O)c3ccc(NC4CCCC4)cc3)ccc2[nH]1 [Example 26, 4-[5-(4-Cyclopentylamino-benzenesulfonyloxy)-1H-benzoimidazol-2-ylcarbamoyl]-butyric acid methyl ester] | 680 | 130 |
| O=C(Nc1nc2cc(OS(=O)(=O)c3ccc(NC4CCCC4)cc3)ccc2[nH]1)C1CC1 [Example 27, 4-Cyclopentylamino-benzenesulfonic acid 2-(cyclopropanecarbonyl-amino)-1H-benzoimidazol-5-yl ester] | 600 | 42 |
| COCC(=O)Nc1nc2cc(OS(=O)(=O)c3ccc(NC4CCCC4)cc3)ccc2[nH]1 [Example 28, 4-Cyclopentylamino-benzenesulfonic acid 2-(2-methoxy-acetylamino)-1H-benzoimidazol-5-yl ester] | 1030 | 600 |
| CN(C)CC(=O)Nc1nc2cc(OS(=O)(=O)c3ccc(NC4CCCC4)cc3)ccc2[nH]1 [Example 29, 4-Cyclopentylamino-benzenesulfonic acid 2-(2-dimethylamino-acetylamino)-1H-benzoimidazol-5-yl ester] | 1700 | 600 |
| CNC(=O)Nc1nc2cc(OS(=O)(=O)c3ccc(-n4ccnc4)cc3)ccc2[nH]1 [Example 30, N-[5-(4-[imidazolyl]-phenylsulfonyloxy)-1H-benzimidazole-2-yl]-methylurea] | 1800 | 900 |
| CNC(=O)Nc1nc2cc(OS(=O)(=O)c3ccc(NC4CCCC4)cc3)ccc2[nH]1 [Example 31, N-[5-(4-cyclopentylaminophenylsulfonyloxy)-1H-benzimidazole-2-yl]-methylurea] | 500 | 100 |
| CN(C)C(=O)Nc1nc2cc(OS(=O)(=O)c3ccc(NC4CCCC4)cc3)ccc2[nH]1 [Example 32, N-[5-(4-cyclopentylaminophenylsulfonyloxy)-1H-benzimidazole-2-yl]-dimethylurea] | > 5000 | 1100 |
| O=C(Nc1nc2cc(OS(=O)(=O)c3ccc(NC4CCCC4)cc3)ccc2[nH]1)NC1CC1 [Example 33, 4-Cyclopentylamino-benzenesulfonic acid 2-(3-cyclopropyl-ureido)-1H-benzoimidazol-5-yl ester] | 640 | 60 |
| CC(C)NC(=O)Nc1nc2cc(OS(=O)(=O)c3ccc(NC4CCCC4)cc3)ccc2[nH]1 [Example 34, 4-Cyclopentylamino-benzenesulfonic acid 2-(3-isopropyl-ureido)-1H-benzoimidazol-5-yl ester] | 1180 | 120 |
| CCCCNC(=O)Nc1nc2cc(OS(=O)(=O)c3ccc(NC4CCCC4)cc3)ccc2[nH]1 [Example 35, 4-Cyclopentylamino-benzenesulfonic acid 2-(3-butyl-ureido)-1H-benzoimidazol-5-yl ester] | 1100 | 120 |
| O=C(Nc1nc2cc(OS(=O)(=O)c3ccc(-n4ccnc4)cc3)ccc2[nH]1)Nc1ccccc1F [Example 36, 4-Imidazol-1-yl-benzenesulfonic acid 2-[3-(2-fluoro-phenyl)-ureido]-1H-benzoimidazol-5-yl ester] | 770 | 530 |
| O=C(Nc1nc2cc(OS(=O)(=O)c3ccc(NC4CCCC4)cc3)ccc2[nH]1)Nc1ccccc1F [Example 37, 4-Cyclopentylamino-benzenesulfonic acid 2-[3-(2-fluoro-phenyl)-ureido]-1H-benzoimidazol-5-yl ester] | 570 | 450 |
| COc1cccc(NC(=O)Nc2nc3cc(OS(=O)(=O)c4ccc(NC5CCCC5)cc4)ccc3[nH]2)c1 [Example 38, 4-Cyclopentylamino-benzenesulfonic acid 2-[3-(3-methoxy-phenyl)-ureido]-1H-benzoimidazol-5-yl ester] | 1250 | 4300 |
| COc1ccc(NC(=O)Nc2nc3cc(OS(=O)(=O)c4ccc(NC5CCCC5)cc4)ccc3[nH]2)cc1 [Example 39, 4-Cyclopentylamino-benzenesulfonic acid 2-[3-(4-methoxy-phenyl)-ureido]-1H-benzoimidazol-5-yl ester] | 1620 | 290 |
| CCOC(=O)c1cccc(Nc2nc3cc(OS(=O)(=O)c4ccc(NC5CCCC5)cc4)ccc3[nH]2)c1 [Example 70-g, 3-[5-(4-Cyclopentylamino-benzenesulfonyloxy)-1H-benzoimidazol-2-ylamino]-benzoic acid ethyl ester] |  | 1500 |

Reference: US20050014811A1, “Substituted benzimidazole compounds and their use for the treatment of cancer” (Aventis Pharma S.A., priority 2001, published 2005)
